How the values were obtained:
Taq DNA polymerase = molecular target: T1, Taq DNA polymerase (Thermus aquaticus, UniProt P19821); assay: Primer extension assay with a single nucleotide, TOP primer/BOT template duplexes (FIG. 1); type: biochemical; conditions: for DNA strand extension and misincorporation on a template with multiple Ts: template BOT-3TC, lanes 10, 11
T1 construct: purchased Promega Corporation
Experimental: The ability of a commercially available polymerase to incorporate the novel dNTPs synthesized was monitored using primer extension assays.
This first example illustrates the incorporation of ANS-γ-phosphate dATP to produce extended DNA products from primer/template duplexes. The reactions were carried out in extension buffer and the resulting radiolabeled products were size separated on a 20% denaturing polyacrylamide gel. Data were collected using a phosphorimaging system. Referring now FIG. 1, Lane 1 contained 5′ radiolabeled ‘TOP’ probe in extension buffer. Lane 2 contained Taq DNA polymerase, 50 μM dGTP incubated with a DNA duplex (radiolabeled TOP with excess ‘BOT-Sau’). Lane 3 contained Taq DNA polymerase, 50 μM dATP incubated with a DNA duplex (radiolabeled TOP with excess ‘BOT-Sau’). Lane 4 contained Taq DNA polymerase, 50 μM ANS-γ-dATP incubated with a DNA duplex (radiolabeled TOP with excess ‘BOT-Sau’). Lane 5 contained Taq DNA polymerase, 50 μM dGTP incubated with a DNA duplex (radiolabeled TOP with excess ‘BOT-TC’). Lane 6 contained spill-over from lane 5. Lane 7 contained Taq DNA polymerase, 50 μM dATP incubated with a DNA duplex (radiolabeled TOP with excess ‘BOT-TC’). Lane 8 contained Taq DNA polymerase, 50 μM ANS-γ-dATP incubated with a DNA duplex (radiolabeled TOP with excess ‘BOT-TC’). Lane 9 contained Taq DNA polymerase, 50 μM dGTP incubated with a DNA duplex (radiolabeled TOP with excess ‘BOT-3TC’). Lane 10 contained Taq DNA polymerase, 50 μM dATP incubated with a DNA duplex (radiolabeled TOP with excess ‘BOT-3TC’). Lane 11 contained Taq DNA polymerase, ANS-γ-dATP incubated with a DNA duplex (radiolabeled TOP with excess ‘BOT-3TC’). Lane 12 contained 5′ radiolabeled ‘TOP’ probe in extension buffer. Lane 13 contained 5′ radiolabeled ‘TOP’ probe and Taq DNA polymerase in extension buffer.
In these experiments, Taq DNA polymerase (2.5 units/reaction; Promega Corporation) was incubated in polymerase reaction buffer with 10,000 cpm of 5′-^32P end-labeled ‘TOP’ primer, 10 ng of the indicated single-stranded template, and the specified dNTP. The sequences of the oligonucleotides are shown (Table 1). Extension reactions were incubated for 30 minutes, and terminated by the addition of 1 µl of 0.5 M EDTA. The reactions were lyophilized and resuspended in 3.5 µl of sequencing loading buffer. Reaction products were heat denatured, loaded onto a 20% denaturing polyacrylamide gel, size-separated, and quantified using a phosphorimaging system (Fuji Medical Systems, Inc.).

DNA polymerases = assay: Primer extension with several different DNA polymerases, template directing dATP, dATP, dATP, dGTP (FIG. 12); type: biochemical; conditions: only the indicated nucleotide, 100 μM, 30 minutes
Experimental: Different Polymerases React Differently to the ANS-γ-modified Nucleotides: primer extension reactions were performed to determine the ability of various polymerases to incorporate γ-tagged dNTPs during DNA polymerization. Control reactions contained natural dNTPs to monitor for template-directed nucleotide incorporation as well as for misincorporation as shown in FIG. 12. The reactions were performed in the appropriate buffer and contained the specified polymerase, primer/template duplex (radiolabeled ‘TOP’ primer annealed to ‘BOT-3TC’ template), and only the indicated dNTP. The reactions were carried out at room temperature or at 37° C. for 30 minutes and were stopped by the addition of […]. The volume of the reaction was then reduced to approximately 2-4 μL, loading dye was added and the polymerization products were electrophoresed through a 20% denaturing polyacrylamide gel. Arrows indicate the position of the free labeled ‘TOP’. Asterisks indicate 3-base extension.
Primer extension experiments were performed with several different DNA polymerases to determine whether any of them could incorporate the ANS-γ-phosphate modified nucleotides (FIG. 12). These experiments were performed by incubating the indicated polymerase in appropriate extension buffer, 100 μM ANS-γ-modified dATP, and a 5′-^32P end-labeled primer annealed to a template that directed sequential incorporation of dATP, dATP, dATP dGTP. Positive and negative control reactions containing natural dATP or dGTP, respectively, were run in parallel to monitor template-directed nucleotide incorporation or mis-incorporation. Reactions containing dATP should produce 3-base extension products, whereas those containing dGTP should not produce extended products (due to the absence of dATP). No products longer than 3-bases should result, since no reaction contained more than one nucleotide type. […] Reaction products were heat denatured, loaded onto a 20% denaturing polyacrylamide gel, size-separated (2400 V; 1 hour), and detected via phosphorimaging.

[1] = template BOT-3TC (three A's to be incorporated), lanes 9-11
[2] = template BOT-Sau (first incorporated base should be dGTP), 50 μM nucleotide, lanes 2-4
[3] = template BOT-TC (single A to be incorporated), 50 μM nucleotide, lanes 5-8

T1 sequence (P19821 whole entry): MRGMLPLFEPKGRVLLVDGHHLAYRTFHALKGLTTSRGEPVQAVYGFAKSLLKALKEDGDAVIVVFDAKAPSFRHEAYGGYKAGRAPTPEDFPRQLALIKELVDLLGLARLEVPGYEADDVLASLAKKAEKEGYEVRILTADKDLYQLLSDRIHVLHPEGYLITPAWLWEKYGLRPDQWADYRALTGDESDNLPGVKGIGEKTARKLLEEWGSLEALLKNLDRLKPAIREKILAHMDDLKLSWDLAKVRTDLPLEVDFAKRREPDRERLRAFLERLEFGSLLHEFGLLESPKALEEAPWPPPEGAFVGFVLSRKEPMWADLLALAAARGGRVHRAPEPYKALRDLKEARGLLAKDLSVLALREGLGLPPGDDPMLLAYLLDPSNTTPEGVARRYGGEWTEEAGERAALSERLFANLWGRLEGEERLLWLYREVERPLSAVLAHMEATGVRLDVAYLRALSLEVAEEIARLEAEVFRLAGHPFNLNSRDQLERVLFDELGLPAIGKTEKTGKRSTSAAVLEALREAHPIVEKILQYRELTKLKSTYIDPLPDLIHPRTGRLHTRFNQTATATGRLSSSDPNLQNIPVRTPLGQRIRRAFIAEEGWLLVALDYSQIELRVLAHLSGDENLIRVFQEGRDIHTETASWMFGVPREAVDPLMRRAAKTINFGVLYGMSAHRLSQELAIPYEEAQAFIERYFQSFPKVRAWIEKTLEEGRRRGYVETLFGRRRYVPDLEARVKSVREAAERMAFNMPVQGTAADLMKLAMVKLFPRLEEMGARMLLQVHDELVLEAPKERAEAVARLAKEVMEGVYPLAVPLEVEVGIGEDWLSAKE

Compound | Percent Correct (Taq DNA polymerase; [1]) [%] | Percent Mis-Extended (Taq DNA polymerase; [1]) [%] | Total Percent Extended (Taq DNA polymerase; [1]) [%] | DNA strand extension and misincorporation on a template with multiple Ts (Taq DNA polymerase) | Percent Correct (Taq DNA polymerase; [2]) [%] | Percent Mis-Extended (Taq DNA polymerase; [2]) [%] | Total Percent Extended (Taq DNA polymerase; [2]) [%] | Percent Correct (Taq DNA polymerase; [3]) [%] | Percent Mis-Extended (Taq DNA polymerase; [3]) [%] | Total Percent Extended (Taq DNA polymerase; [3]) [%] | percent extension of the TOP primer (template-directed single base) (Taq DNA polymerase; template BOT-TC, first incorporated base should be dATP, lanes 7, 8) [%] | extension products misextended opposite a template C (Taq DNA polymerase; template BOT-TC, lane 7, percent of the extension products) [%] | misextended products further extended by the enzyme's terminal transferase activity (Taq DNA polymerase; template BOT-TC, lane 7, percent of the misextended products) [%] | extension products formed (DNA polymerases) | decrease in misextensions, tagged nucleotide versus dATP (Taq DNA polymerase; G is to be incorporated, dATP the only nucleotide in the reaction medium) [fold] | decrease in misextensions, tagged nucleotide versus dATP (Taq DNA polymerase; a single A is to be incorporated) [fold] | non-specific, single-base extension (Taq DNA polymerase; template BOT-Sau, first incorporated base should be dGTP (not added), lane 4 vs lane 1) | decrease in misextensions, tagged nucleotide versus dATP (Taq DNA polymerase; three A's are to be incorporated) [fold]
Nc1ncnc2c1ncn2[C@H]1C[C@H](O)[C@@H](COP(=O)(O)OP(=O)(O)OP(=O)(O)O)O1 [dATP] | 27.11 | 54.92 | 82.03 | frequently misincorporated opposite a template C | 61.99 | 38.01 | 38.01 | 15.24 | 69.01 | 84.25 | 75 | 60 | 34 | increased amounts of mis-extended products |  |  |  | 
Nc1nc2c(ncn2[C@H]2C[C@H](O)[C@@H](COP(=O)(O)OP(=O)(O)OP(=O)(O)O)O2)c(=O)[nH]1 [dGTP] | 32.20 | 67.80 | 67.80 |  | 52.99 | 19.97 | 72.97 | 24.99 | 75.01 | 75.01 |  |  |  | increased amounts of mis-extended products |  |  |  | 
ANS γ-phosphoamide dATP [ANS-γ-dATP] | 73.43 | 3.87 | 77.31 | multiple modified nucleotides are incorporated | 87.43 | 12.57 | 12.57 | 71.14 | 6.51 | 77.64 |  |  |  | expected 3-base extension products accumulate | ~3 | ~11 | very little non-specific, single-base extension | ~14

From patent US9845500B2, “Enzymatic nucleic acid synthesis: compositions and methods for inhibiting pyrophosphorolysis” (LIFE TECHNOLOGIES CORPORATION, priority 2000, dated 2017)
